Measured values taken from the supplement of paper PMC4628005.

Experiments:
Conditions in all cases: drug exposure time: 96 h
Erlotinib = compound: C#Cc1cccc(Nc2ncnc3cc(OCCOC)c(OCCOC)cc23)c1 [Erlotinib]
Procedure: (§1)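 Breast cancer cell lines were grown in RPMI 1640 with 10% FBS on collagen I-coated 96-well plates and treated for 96 h (from 24 h after seeding) with 12 dilutions per drug, in triplicate. Growth was read by sulforhodamine B total-protein staining (absorbance 570 nm) relative to diluent control, and IC50 was calculated. The top dose was 1e-5 M for most drugs; Bortezomib went to 2e-5 M and Sirolimus and 17-AAG to 2e-6 M[…].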

Docetaxel = compound: CC(=O)O[C@@]12CO[C@@H]1C[C@H](O)[C@@]1(C)C(=O)[C@H](O)C3=C(C)[C@@H](OC(=O)[C@H](O)[C@@H](NC(=O)OC(C)(C)C)c4ccccc4)C[C@@](O)([C@@H](OC(=O)c4ccccc4)[C@H]21)C3(C)C [Docetaxel]
Procedure: as §1

Paclitaxel = compound: CC(=O)O[C@H]1C(=O)[C@@]2(C)[C@H]([C@H](OC(=O)c3ccccc3)[C@]3(O)C[C@H](OC(=O)[C@H](O)[C@@H](NC(=O)c4ccccc4)c4ccccc4)C(C)=C1C3(C)C)[C@]1(OC(C)=O)CO[C@@H]1C[C@@H]2O [Paclitaxel]
Procedure: as §1

MI-219 = compound: CC(C)(C)C[C@H]1N[C@@H](C(=O)NCC[C@H](O)CO)[C@H](c2cccc(Cl)c2)[C@@]12C(=O)Nc1cc(Cl)c(F)cc12 [MI-219]
Procedure: as §1

Tamoxifen = compound: CC/C(=C(\c1ccccc1)c1ccc(OCCN(C)C)cc1)c1ccccc1 [Tamoxifen]
Procedure: as §1

Sunitinib = compound: CCN(CC)CCNC(=O)c1c(C)[nH]c(/C=C2\C(=O)Nc3ccc(F)cc32)c1C [Sunitinib]
Procedure: as §1

Methotrexate = compound: CN(Cc1cnc2nc(N)nc(N)c2n1)c1ccc(C(=O)N[C@@H](CCC(=O)O)C(=O)O)cc1 [Methotrexate]
Procedure: as §1

Sorafenib = compound: CNC(=O)c1cc(Oc2ccc(NC(=O)Nc3ccc(Cl)c(C(F)(F)F)c3)cc2)ccn1 [Sorafenib]
Procedure: as §1

Vandetanib = compound: COc1cc2/c(=N/c3ccc(Br)cc3F)nc[nH]c2cc1OCC1CCN(C)CC1 [Vandetanib]
Procedure: as §1

Gefitinib = compound: COc1cc2ncnc(Nc3ccc(F)c(Cl)c3)c2cc1OCCCN1CCOCC1 [Gefitinib]
Procedure: as §1

Nutlin-3 = compound: COc1ccc(C2=N[C@@H](c3ccc(Cl)cc3)[C@@H](c3ccc(Cl)cc3)N2C(=O)N2CCNC(=O)C2)c(OC(C)C)c1 [Nutlin-3]
Procedure: as §1

Doxorubicin = compound: COc1cccc2c1C(=O)c1c(O)c3c(c(O)c1C2=O)C[C@@](O)(C(=O)CO)C[C@@H]3O[C@H]1C[C@H](N)[C@H](O)[C@H](C)O1 [Doxorubicin]
Procedure: as §1

Lapatinib = compound: CS(=O)(=O)CCNCc1ccc(-c2ccc3ncnc(Nc4ccc(OCc5cccc(F)c5)c(Cl)c4)c3c2)o1 [Lapatinib]
Procedure: as §1

Panobinostat = compound: Cc1[nH]c2ccccc2c1CCNCc1ccc(/C=C/C(=O)NO)cc1 [Panobinostat]
Procedure: as §1

Brivanib = compound: Cc1cc2c(F)c(Oc3ncnn4cc(OC[C@@H](C)O)c(C)c34)ccc2[nH]1 [Brivanib]
Procedure: as §1

Dasatinib = compound: Cc1nc(Nc2ncc(C(=O)Nc3c(C)cccc3Cl)s2)cc(N2CCN(CCO)CC2)n1 [Dasatinib]
Procedure: as §1

Quisinostat = compound: Cn1cc(CNCC2CCN(c3ncc(C(=O)NO)cn3)CC2)c2ccccc21 [Quisinostat]
Procedure: as §1

Tipifarnib = compound: Cn1cncc1[C@@](N)(c1ccc(Cl)cc1)c1ccc2c(c1)c(-c1cccc(Cl)c1)cc(=O)n2C [Tipifarnib]
Procedure: as §1

Cisplatin = compound: N.N.[Cl][Pt][Cl] [Cisplatin]
Procedure: as §1

Azacitidine = compound: Nc1ncn([C@@H]2O[C@H](CO)[C@@H](O)[C@H]2O)c(=O)n1 [Azacitidine]
Procedure: as §1

Decitabine = compound: Nc1ncn([C@H]2C[C@H](O)[C@@H](CO)O2)c(=O)n1 [Decitabine]
Procedure: as §1

Belinostat = compound: O=C(/C=C/c1cccc(S(=O)(=O)Nc2ccccc2)c1)NO [Belinostat]
Procedure: as §1

Vorinostat = compound: O=C(CCCCCCC(=O)Nc1ccccc1)NO [Vorinostat]
Procedure: as §1

ARQ197 = compound: O=C1NC(=O)[C@@H](c2cn3c4c(cccc24)CCC3)[C@@H]1c1c[nH]c2ccccc12 [ARQ197]
Procedure: as §1

Mitoxantrone = compound: O=C1c2c(O)ccc(O)c2C(=O)c2c(NCCNCCO)ccc(NCCNCCO)c21 [Mitoxantrone]
Procedure: as §1

5-Fluorouracil = compound: O=c1[nH]cc(F)c(=O)[nH]1 [5-Fluorouracil]
Procedure: as §1

Serdemetan = compound: c1ccc2c(CCNc3ccc(Nc4ccncc4)cc3)c[nH]c2c1 [Serdemetan]
Procedure: as §1

17-AAG = compound: C=CCNC1=C2C[C@@H](C)C[C@H](OC)[C@H](O)[C@@H](C)/C=C(\C)[C@H](OC(N)=O)[C@@H](OC)/C=C\C=C(/C)C(=O)NC(=CC1=O)C2=O [17-AAG]
Procedure: (§2)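 Same SRB 96 h IC50 screen on breast cancer cell lines (RPMI 1640 + 10% FBS, collagen I-coated 96-well plates, triplicates, 12 dilutions), for drugs with a different dose range: Bortezomib up to 2e-5 M; Sirolimus and 17-AAG up to 2e-6 M. Sirolimus values at the 2e-6 M top dose are censored.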

Bortezomib = compound: CC(C)C[C@H](NC(=O)[C@H](Cc1ccccc1)NC(=O)c1cnccn1)B(O)O [Bortezomib]
Procedure: as §2

Sirolimus = compound: CO[C@H]1C[C@@H]2CC[C@@H](C)[C@@](O)(O2)C(=O)C(=O)N2CCCC[C@H]2C(=O)O[C@H]([C@H](C)C[C@@H]2CC[C@@H](O)[C@H](OC)C2)CC(=O)[C@H](C)/C=C(\C)[C@@H](O)[C@@H](OC)C(=O)[C@H](C)C[C@H](C)/C=C/C=C/C=C/1C [Sirolimus]
Procedure: as §2

Test System | IC50 (SRB growth assay) (Erlotinib) | IC50 (SRB growth assay) (Docetaxel) | IC50 (SRB growth assay) (Paclitaxel) | IC50 (SRB growth assay) (MI-219) | IC50 (SRB growth assay) (Tamoxifen) | IC50 (SRB growth assay) (Sunitinib) | IC50 (SRB growth assay) (Methotrexate) | IC50 (SRB growth assay) (Sorafenib) | IC50 (SRB growth assay) (Vandetanib) | IC50 (SRB growth assay) (Gefitinib) | IC50 (SRB growth assay) (Nutlin-3) | IC50 (SRB growth assay) (Doxorubicin) | IC50 (SRB growth assay) (Lapatinib) | IC50 (SRB growth assay) (Panobinostat) | IC50 (SRB growth assay) (Brivanib) | IC50 (SRB growth assay) (Dasatinib) | IC50 (SRB growth assay) (Quisinostat) | IC50 (SRB growth assay) (Tipifarnib) | IC50 (SRB growth assay) (Cisplatin) | IC50 (SRB growth assay) (Azacitidine) | IC50 (SRB growth assay) (Decitabine) | IC50 (SRB growth assay) (Belinostat) | IC50 (SRB growth assay) (Vorinostat) | IC50 (SRB growth assay) (ARQ197) | IC50 (SRB growth assay) (Mitoxantrone) | IC50 (SRB growth assay) (5-Fluorouracil) | IC50 (SRB growth assay) (Serdemetan) | IC50 (SRB growth assay) (17-AAG) | IC50 (SRB growth assay) (Bortezomib) | IC50 (SRB growth assay) (Sirolimus)
BT 20 | 6.14 µM | 541 pM | 1.79 nM | > 10 µM | 0.0494 µM | > 10 µM | > 10000 nM | 3.78 µM | 9.41 µM | > 10 µM | > 10 µM | 10.5 nM | 5.8 µM | 7.93 nM | > 10 µM | > 10000 nM | 8.27 nM | 0.0319 µM | > 10 µM | 1.14 µM | > 10 µM | 197 nM | 586 nM | 511 nM | 10.9 nM | 2.83 µM | 2.27 µM | 535 nM | 13.9 nM | 232 pM
BT 474 | 1.97 µM | 891 pM | 2.18 nM | > 10 µM | 4.13 µM | 5.78 µM | > 10000 nM | 3.5 µM | 2.77 µM | 0.731 µM | > 10 µM |  | > 10 µM | 3.31 nM | > 10 µM | 611 nM | 1.85 nM |  |  | > 10 µM | > 10 µM | 191 nM | 376 nM |  | 23.3 nM | > 10 µM | 2.28 µM | 19.5 nM | 5.49 nM | 119 pM
BT 549 | 6.1 µM | 598 pM | 1.44 nM | > 10 µM | 7.41 µM | 3.29 µM | 22.4 nM | 6.04 µM | 3.41 µM | > 10 µM | > 10 µM |  | 0.256 µM | 11.1 nM | 6.3 µM | 565 nM | 12.4 nM |  |  | > 10 µM | 0.256 µM | 436 nM | 764 nM |  | 1.88 nM | 3.72 µM | 1.26 µM | 58.4 nM | 3.97 nM | 597 pM
CAMA 1 | > 10 µM | 662 pM | 1.95 nM | > 10 µM | 7.98 µM | 5.68 µM | 8300 nM | 5.24 µM | > 10 µM | > 10 µM | > 10 µM | 21.8 nM | 4.2 µM | 12.6 nM | > 10 µM | > 10000 nM | 2.87 nM | 3.04 µM | > 10 µM | 5.56 µM | 1.04 µM | 339 nM | 1020 nM | 424 nM | 6.16 nM | 1.56 µM | 1.52 µM | 22.7 nM | 6.12 nM | 106 pM
HCC 1937 | > 10 µM | 1080 pM | 4.02 nM | > 10 µM | 5.72 µM | 6 µM | 65.5 nM | 6.23 µM | 4.06 µM | > 10 µM | > 10 µM |  | 1.93 µM | 42.1 nM | > 10 µM | 4730 nM | 43.9 nM |  |  | > 10 µM | 1.93 µM | 572 nM | 1760 nM |  | 76.6 nM | 5.28 µM | 1.05 µM | 26.7 nM | 5.14 nM | 5980 pM
MDA-MB 231 | > 10 µM | 535 pM | 1.49 nM | > 10 µM | 9.79 µM | 2.52 µM | 2.1 nM | 4.27 µM | 4.8 µM | > 10 µM | > 10 µM |  | 0.0657 µM | 15.5 nM | 6.48 µM | 67.6 nM | 16.1 nM |  |  | > 10 µM | 0.0657 µM | 410 nM | 1320 nM |  | 2.65 nM | 2.58 µM | 0.474 µM | 683 nM | 4.43 nM | 4750 pM
MDA-MB-175 VII | > 10 µM | 6870 pM | 7.47 nM | 1.36 µM | 7.37 µM | > 10 µM | 595 nM | 6.47 µM | 2.45 µM | > 10 µM | 3.74 µM |  | > 10 µM | 15.2 nM | > 10 µM | 513 nM | 14.8 nM |  |  | > 10 µM | > 10 µM | 493 nM | 898 nM |  | 12.6 nM | 4.18 µM | 4.89 µM | 15 nM | 8 nM | 1270 pM
